# Read-outs that look alike come from different tables or passages of the source.
# Columns and labels:
# arginase = target: T1, arginase (Bos taurus, UniProt Q2KJ64); assay: Arginase activity assay, conversion of L-[guanidine-14C]-arginine to [14C]-urea; type: biochemical, bovine; conditions: for IC50: 1 mM MnCl2, pH 9.6, 1 h at 37°C, means ± SD (n = 4); for inhibitory efficiency for arginase, fold weaker than NOHA: compared with NOHA (IC50 340 µM)
# T1 construct: purchased Alexis Biochemicals (Lausen, Switzerland)
# T1 sequence (Q2KJ64 1-322): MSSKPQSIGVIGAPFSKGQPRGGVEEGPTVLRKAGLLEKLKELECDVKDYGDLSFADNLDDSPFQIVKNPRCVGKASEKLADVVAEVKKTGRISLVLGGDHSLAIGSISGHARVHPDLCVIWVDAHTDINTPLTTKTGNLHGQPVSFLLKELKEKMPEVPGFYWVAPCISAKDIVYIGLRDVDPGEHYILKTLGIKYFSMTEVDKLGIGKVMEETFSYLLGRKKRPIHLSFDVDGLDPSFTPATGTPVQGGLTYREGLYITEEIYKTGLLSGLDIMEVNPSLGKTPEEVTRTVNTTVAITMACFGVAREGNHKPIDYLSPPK
# Description: (§1) L-Arginine, ADMA, N^G-hydroxy-L-arginine (NOHA), nicotinamide adenine dinucleotide phosphate reduced form (NADPH), flavin adenine dinucleotide (FAD), flavin mononucleotide (FMN), (6R)-5,6,7,8-tetrahydrobiopterin (BH4), recombinant eNOS (from bovine), iNOS (from mouse macrophage), Dowex® AG50W-X8 cation-exchange resin (mesh size, 100–200) were all purchased from Sigma Chemicals (St. Louis, MO). Ultima Gold XR scintillation liquid was from PerkinElmer (Shelton, CA). Recombinant nNOS (from rat) and N^G-hydroxy-nor-arginine (nor-NOHA) were obtained from Cayman Chemicals. Arginase (from bovine liver) was from Alexis Biochemicals (Lausen, Switzerland). L-NMMA was from Calbiochem, Darmstadt, Germany. All other chemicals were obtained from Wako Pure Chemical Industries, Osaka, Japan.
# Assays for arginase activity were performed by monitoring the conversion of L-[guanidine-^14C]-arginine (Moravek, Brea, CA) to [^14C]-urea as previously described. Recombinant arginase (0.5 µg of protein, specific activity: 0.094 units/mg protein) (10 µl) was added to a mixture (final volume of 100 µl) containing 10 mM Tris-HCl buffer, pH 9.6, 1 mM MnCl2, and 0.16 µCi/ml of L-[guanidine-^14C]-arginine (specific activity: 1.85–2.22 GBq/mmol). After incubation for 1 h at 37°C, the reactions were terminated by addition of 0.4 ml of stop buffer containing 250 mM sodium acetate and 100 mM urea, pH 4.5. Samples were then passed through a 1 ml column of Dowex AG50W-8X (Na^+-form) to remove unmetabolized L-[guanidine-^14C]-arginine. [^14C]-Urea was eluted twice with 1 ml of distilled water, and the eluted fractions mixed with 10 ml of cocktail (Ultima Gold XR) were quantified using a liquid scintillation counter. A reaction mixture containing L-[guanidine-^14C]-arginine in the absence of enzyme was incubated as a control to determine background counts. The inhibitory effects of arginase were examined in the presence and absence of the test compounds at various concentrations.
# recombinant eNOS = target: T2, recombinant eNOS (Bos taurus, UniProt P29473); assay: NOS activity assay, conversion of L-[14C(U)]-arginine to L-[14C(U)]-citrulline, eNOS; type: biochemical, bovine; conditions: 50 µM L-arginine, 30 min at 37°C, pH 7.4; means ± SD (n = 4)
# T2 construct: purchased Sigma Chemicals (St. Louis, MO)
# Description: as §1, with “L-NMMA was from Calbiochem, Darmstadt, Germany.” left out
# (§2) The NOS activities were determined by monitoring the conversion of L-[^14C(U)]-arginine (Moravek, Brea, CA) to L-[^14C(U)]-citrulline as previously described. Recombinant enzymes of three isoforms of NOS (specific activity: eNOS 0.03, nNOS 2.9, iNOS 0.62 units/mg protein) (10 µl) were added to a reaction mixture (final volume of 100 µl) consisting of 50 mM HEPES buffer (pH 7.4), 1 mM NADPH, 4 µM FAD, 4 µM FMN, 10 µM BH4, 1 mg/L calmodulin, 2.5 mM CaCl2, 50 µM L-arginine and 0.5 µCi/ml of L-[^14C(U)]-arginine (specific activity: 8.14–11.1 GBq/mmol). After incubation for 30 min at 37°C, the reactions were terminated by addition of 0.5 ml of 20 mM HEPES (pH 5.5) containing 2 mM EDTA and 2 mM EGTA. Samples were passed through a 1 ml column of Dowex AG50W-X8 (Na^+-form) to remove unconverted L-[^14C(U)]-arginine. L-[^14C(U)]-Citrulline was eluted twice with 1 ml of distilled water, and the eluted fractions mixed with 10 ml of cocktail (Ultima Gold XR) were quantified using a liquid scintillation counter. A reaction mixture containing L-[^14C(U)]-arginine without the enzyme was incubated as a control to determine background counts.
# recombinant iNOS = target: T3, recombinant iNOS (Mus musculus, UniProt P29477); assay: NOS activity assay, conversion of L-[14C(U)]-arginine to L-[14C(U)]-citrulline, iNOS; type: biochemical; conditions: 50 µM L-arginine, 30 min at 37°C, pH 7.4; means ± SD (n = 4)
# T3 construct: purchased Sigma Chemicals (St. Louis, MO)
# Description: as §1, with “L-NMMA was from Calbiochem, Darmstadt, Germany.” left out
# as §2
# recombinant nNOS = target: T4, recombinant nNOS (Rattus norvegicus, UniProt P29476); assay: NOS activity assay, conversion of L-[14C(U)]-arginine to L-[14C(U)]-citrulline, nNOS; type: biochemical; conditions: 50 µM L-arginine, 30 min at 37°C, pH 7.4; means ± SD (n = 4)
# T4 construct: purchased Cayman Chemicals
# Description: as §1, with “L-NMMA was from Calbiochem, Darmstadt, Germany.” left out
# as §2
# [1] = target: T5, dimethylarginine dimethylaminohydrolase (DDAH) (Rattus norvegicus, UniProt O08557); assay: DDAH activity assay, conversion of L-[3H]-NMMA to L-[3H]-citrulline by rat kidney homogenate; type: biochemical
# T5 construct: from tissue; host or cells: rat kidney homogenate supernatant
# T5 sequence (O08557 whole entry): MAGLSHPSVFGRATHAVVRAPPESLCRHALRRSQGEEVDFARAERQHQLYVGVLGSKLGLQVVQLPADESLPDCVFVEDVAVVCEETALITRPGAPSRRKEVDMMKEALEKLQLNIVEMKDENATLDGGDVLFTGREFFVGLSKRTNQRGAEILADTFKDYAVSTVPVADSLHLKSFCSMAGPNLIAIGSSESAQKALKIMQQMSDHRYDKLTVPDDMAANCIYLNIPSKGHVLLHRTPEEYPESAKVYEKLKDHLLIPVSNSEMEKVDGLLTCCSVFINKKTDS
# Procedure: The DDAH activity was determined by monitoring the conversion of L-[4,5-^3H]-NMMA (American Radiolabeled Chemicals, Inc., St. Louis, MO) to L-[^3H]-citrulline as previously described. Rat kidney tissues (0.5 g) were homogenized in 1 ml of ice-cold 0.1 M sodium phosphate buffer (SPB, pH 6.5), and then centrifuged at 10,000 rpm for 5 min at 4°C. The supernatants were analyzed for protein content using a BCA protein reagent kit with bovine serum albumin as the standard. The supernatants were diluted with SPB to 1 mg protein in 50 µl, and then were added to a reaction mixture (a final volume of 100 µl) containing 0.1 M SPB (pH 6.5) and 0.1 µCi/ml of L-[^3H]-NMMA (specific activity: 1.48–2.96 TBq/mmol). After incubation for 1 h at 37°C, the reactions were terminated by keeping the tubes on ice for 5 min. Samples were then passed through a 1 ml column of Dowex AG50W-8X (Na^+-form) to remove unmetabolized L-[^3H]-NMMA. L-[^3H]-Citrulline was eluted twice with 1 ml of distilled water, and the eluted fractions mixed with 10 ml of cocktail (Ultima Gold XR) were quantified using a liquid scintillation counter. A reaction mixture containing L-[^3H]-NMMA in the absence of enzyme was added to the Dowex column to determine background counts. The effects of arginine derivatives on the enzyme activities in the presence and absence of the test compounds at various concentrations were examined.
# [2] = rat kidney extracts, SPB pH 6.5, 1 h at 37°C, means ± SD (n = 4), read-out: IC50 DDAH
Structure (SMILES),IC50 (arginase) [mM],IC50 (recombinant eNOS) [mM],IC50 (recombinant iNOS) [mM],IC50 (recombinant nNOS) [mM],"inhibitory efficiency for arginase, fold weaker than NOHA (arginase)","IC50 [1, 2] [mM]",IC50 [1] [mM]
"NC(=NCCCC(N)C(=O)O)NO [NOHA, N^G-hydroxy-L-arginine, reference compound]",0.34 ± 0.012,–,–,–,–,–,–
"NC(CCCCNCC(=O)O)C(=O)O (stereo not shown) [CML, carboxymethyl-lysine]",1.06 ± 0.06,> 5,> 5,1.93 ± 0.3,approximately 3 fold,> 5,–
"CC(NC(=N)NCCCC(N)C(=O)O)C(=O)O (stereo not shown) [CEA, N^ω-carboxyethyl-arginine]",> 5,3.87 ± 0.68,> 5,> 5,–,–,> 5
"CC1NC(NCCCC(N)C(=O)O)=NC1=O (stereo not shown) [MG-H1, N^δ-(5-hydro-5-methyl-4-imidazolon-2-yl)-ornithine]",> 5,1.28 ± 0.075,2.97 ± 0.56,4.17 ± 0.38,–,> 5,–
"N=C(NO)NCC[C@H](N)C(=O)O [Nor-NOHA, N^G-hydroxy-nor-arginine, reference compound]",0.23 ± 0.026,–,–,–,–,–,1.77 ± 0.25
"CN(C)C(=N)NCCCC(N)C(=O)O [ADMA, asymmetric N^G,N^G-dimethyl-L-arginine, reference compound]",–,0.016 ± 0.009,0.024 ± 0.001,0.023,–,–,–
"N=C(NCCCC(N)C(=O)O)NCC(=O)O (stereo not shown) [CMA, N^ω-Carboxymethyl-arginine]",1.47 ± 0.12,0.83 ± 0.036,1.16 ± 0.04,> 5,approximately 3 fold,–,> 5
